Source: patent US8106055B2, “Substituted amide compounds” (Gruenenthal GmbH, priority 2007, dated 2012)

Columns and labels:
[1] = biological target: T1, human bradykinin 1 receptor (B1R) (Homo sapiens, UniProt P46663); assay: Functional investigation on the human bradykinin 1 receptor (B1R), Ca2+ FLIPR assay in CHO K1 hB1R cells; format: cell-based; conditions: B1R antagonism human; test substance 10 μM; Ca2+ FLIPR, CHO K1 hB1R cells
T1 construct: expressed in transfected cells; host or cells: CHO K1 cells
T1 sequence (P46663 1-353): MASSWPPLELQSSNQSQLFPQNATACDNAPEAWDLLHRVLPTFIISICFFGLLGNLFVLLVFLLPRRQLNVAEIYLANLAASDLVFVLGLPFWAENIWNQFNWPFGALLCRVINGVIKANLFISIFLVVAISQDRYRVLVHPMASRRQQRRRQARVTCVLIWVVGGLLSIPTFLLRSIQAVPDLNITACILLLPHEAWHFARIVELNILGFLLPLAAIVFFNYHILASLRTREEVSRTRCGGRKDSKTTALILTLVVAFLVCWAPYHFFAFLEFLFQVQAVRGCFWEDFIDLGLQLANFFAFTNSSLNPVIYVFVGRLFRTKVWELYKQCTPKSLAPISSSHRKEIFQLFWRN
Summary of the method: (§1)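 Stably transfected CHO K1 cells loaded with Fluo-4; FLIPR Ca2+ fluorescence peak (ex 488/em 540 nm). Compound added first (agonism vs Lys-Des-Arg9-bradykinin ≥50 nM human, Des-Arg9-bradykinin 10 μM rat), then after 10-20 min agonist at EC80; antagonism as % inhibition, IC50 from concentration series, n=2-3, N≥2.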

[2] = biological target: T2, bradykinin 1 receptor (B1R) of the rat (Rattus norvegicus, UniProt P97583); assay: Functional investigation on the rat bradykinin 1 receptor (B1R), Ca2+ FLIPR assay in CHO K1 rB1R cells; format: cell-based; conditions: B1R antagonism rat; test substance 10 μM; Ca2+ FLIPR, CHO K1 rB1R cells
T2 construct: expressed in transfected cells; host or cells: CHO K1 cells
T2 sequence (P97583 1-337): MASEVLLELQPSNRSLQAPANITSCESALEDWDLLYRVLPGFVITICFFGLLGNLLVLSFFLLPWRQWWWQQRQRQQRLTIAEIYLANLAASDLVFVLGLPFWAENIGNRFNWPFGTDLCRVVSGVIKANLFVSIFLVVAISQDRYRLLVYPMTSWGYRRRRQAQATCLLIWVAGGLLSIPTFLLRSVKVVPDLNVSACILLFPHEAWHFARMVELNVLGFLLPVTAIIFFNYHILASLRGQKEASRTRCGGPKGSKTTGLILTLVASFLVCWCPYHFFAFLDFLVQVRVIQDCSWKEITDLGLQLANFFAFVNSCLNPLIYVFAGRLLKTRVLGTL
Summary of the method: as §1

## CN(C)C(c1ccc(Cl)cc1)C1CCC(CCNC(=O)COCCC2CCN(S(=O)(=O)c3ccccc3)CC2)CC1 (stereo not shown) [Example 531]
[1]
  B1R Ant. h [10 μM] % Inhibition: 2%
[2]
  B1R Ant. r [10 μM] % Inhibition: −1%

## COc1cc(C)c(S(=O)(=O)N2CCC(CCOCC(=O)NCC3CCC(C(c4ccc(Cl)cc4)N(C)C)CC3)CC2)c(C)c1C (stereo not shown) [Example 499]
[1]
  B1R Ant. h [10 μM] % Inhibition: 25%
[2]
  B1R Ant. r [10 μM] % Inhibition: −10%
